Patent publication US5149648A, “Enzymes employed for producing pulps” (Kabushiki Kaisha Kobe Seiko Sho, priority 1989, dated 1992)
Like-named read-outs stand apart in the source and are kept apart here.

Key:
F-1 = type: biochemical, NK-1148 strain
Method: (§1) The results of measuring enzyme activities of the enzymes of this invention (F-1, F-2 and F-3) after adding each of various substances are as follows.
(§2) 20 μl of the enzyme of this invention is made to react with a reaction solution consisting of 10 μl of a 10 mM syringylglycerol-β-syringylether solution which contains a small amount of dioxane and 720 μl of a 50 mM acetate buffer solution (pH 5.0) and increases of absorbance at 300 nm are measured.
(§3) Enzyme activity producing a 0.01 increase of absorbance during one minute is supposed to be one unit.

F-2 = type: biochemical, NK-1148 strain
Method: as §1, §2, §3

F-3 = type: biochemical, NK-1148 strain
Method: as §1, §2, §3

[1] = system: NK-1148 strain (FERM BP-1859); test: Effect of lignin-related substances on the enzyme production; type: cell-based; details: 0.2% of substance added after 7 days culture, further cultured at 28° C. for one day
Method: as §2, §3
After 100 ml of a medium of the same composition as that used in Example 3 was placed in a 500 ml Erlenmeyer flask and sterilized at 120° C. for 15 minutes, NK-1148 strain (FERM BP-1859) was inoculated into the medium and cultured at 28° C. for 7 days.

[2] = substance added at 1 mM, no addition = 100%
[3] = substance added at 0.5 mM, no addition = 100%

SMILES	Relative Activity F-1 (F-1; [2])	Relative Activity F-2 (F-2; [2])	Relative Activity F-3 (F-3; [2])	further results
OCCS [2-Mercapto-ethanol]	10%	19%	15%	–
[Cl][Al]([Cl])[Cl] [AlCl3]	61%	65%	65%	–
[Ba+2].[Cl-].[Cl-] [BaCl2]	93%	95%	95%	–
OCc1ccccc1 [Benzyl alcohol, benzyl alcohol]	–	–	–	Enzymatic activity [1]: 0.01 Unit/ml
[Ca+2].[Cl-].[Cl-] [CaCl2]	94%	95%	95%	–
[Cl-].[Cl-].[Co+2] [CoCl2]	97%	94%	96%	–
[Cl][Cu][Cl] [CuCl2]	102%	92%	100%	–
N[C@@H](CS)C(=O)O [Cysteine]	11%	21%	13%	–
O=C(O)CN(CCN(CC(=O)O)CC(=O)O)CC(=O)O [EDTA]	–	–	–	Relative Activity F-1 (F-1; pH 5, 1000 µM): 98; Relative Activity F-2 (F-2; pH 5, 1000 µM): 102; Relative Activity F-3 (F-3; pH 5, 1000 µM): 101
[Cl][Fe]([Cl])[Cl] [FeCl3]	–	–	–	Relative Activity F-1 (F-1; [3]): 15%; Relative Activity F-2 (F-2; [3]): 31%; Relative Activity F-3 (F-3; [3]): 25%
[Cl][Hg][Cl] [HgCl2]	11%	21%	18%	–
[Cl-].[Cl-].[Mg+2] [MgCl2]	94%	94%	95%	–
[Cl][Mn][Cl] [MnCl2]	95%	95%	95%	–
[N-]=[N+]=[N-].[Na+] [NaN3]	14%	23%	20%	–
CCCCCCCCCCCCOS(=O)(=O)[O-].[Na+] [SDS, sodium dodecyl sulfate]	106%	101%	103%	–
COc1cc(CO)cc(OC)c1O [Syringyl alcohol, syringyl alcohol]	–	–	–	Enzymatic activity [1]: 4.0 Unit/ml
COc1cc(C(O)C(CO)Oc2c(OC)cccc2OC)cc(OC)c1O (stereo not drawn) [Syringylglycerol-β-syringylether, syringylglycerol-β-syringylether]	–	–	–	Enzymatic activity [1]: 3.9 Unit/ml
COc1cc(CO)ccc1O [Vanillyl alcohol, vanillyl alcohol]	–	–	–	Enzymatic activity [1]: 3.95 Unit/ml
COc1ccc(CO)cc1OC [Veratryl alcohol, veratryl alcohol]	–	–	–	Enzymatic activity [1]: 0.05 Unit/ml
[Cl-].[Cl-].[Zn+2] [ZnCl3]	94%	93%	94%	–
